Experimental data as given in patent publication US20230399341A1, “7-PHENYL SUBSTITUTED 2-AMINOQUINAZOLINE INHIBITORS OF HPK1” (MERCK SHARP & DOHME LLC, priority 2020, published 2023).
pIC50: −log10 of the molar value.

Molecular target: T1, Human HPK1, catalytic domain (Homo sapiens, UniProt Q92918)
T1 sequence (Q92918 1-346): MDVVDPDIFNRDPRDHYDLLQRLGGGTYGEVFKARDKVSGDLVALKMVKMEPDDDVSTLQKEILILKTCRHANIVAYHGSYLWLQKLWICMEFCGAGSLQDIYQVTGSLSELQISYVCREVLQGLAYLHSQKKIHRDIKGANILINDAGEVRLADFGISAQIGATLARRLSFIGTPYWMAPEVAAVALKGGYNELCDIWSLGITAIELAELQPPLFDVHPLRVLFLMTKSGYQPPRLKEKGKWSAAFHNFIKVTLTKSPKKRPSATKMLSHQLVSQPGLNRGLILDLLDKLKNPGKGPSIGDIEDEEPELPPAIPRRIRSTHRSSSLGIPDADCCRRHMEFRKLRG
Assay: HPK1-SLP76 TR-FRET Assay
Format: biochemical
Details: 75 pM HPK1, ATP 10 uM, SLP76 10 nM, 30 min pre-incubation, 60 min reaction

Compound | pIC50
COc1cc2c(cc1Nc1ncc3ccc(-c4cccc(C(C)(C)NC(C)=O)c4)cc3n1)CN(C)CC2 [Compound 1-100, N-[2-(3-{2-[(6-methoxy-2-methyl-1,2,3,4-tetrahydroisoquinolin-7-yl)amino]quinazolin-7-yl}phenyl)propan-2-yl]acetamide] | 6.55
COc1cc2c(cc1Nc1ncc3ccc(-c4cncc(NS(=O)(=O)C(C)C)c4)cc3n1)CNCC2 [Compound 1-51, N-(5-{2-[(6-methoxy-1,2,3,4-tetrahydroisoquinolin-7-yl)amino]quinazolin-7-yl}pyridin-3-yl)propane-2-sulfonamide] | 7.32
COc1cc2c(cc1Nc1ncc3c(N)c(F)c(-c4cnc5c(c4C)NCCO5)cc3n1)CN(C(C)C)CC2 [Compound 2-72, 6-fluoro-N~2~-[6-methoxy-2-(propan-2-yl)-1,2,3,4-tetrahydroisoquinolin-7-yl]-7-(8-methyl-2,3-dihydro-1H-pyrido[2,3-b][1,4]oxazin-7-yl)quinazoline-2,5-diamine] | 9.93
CS(=O)(=O)Cc1ccc(Nc2ncc3c(N)c(F)c(-c4cnc5c(c4Cl)NCCO5)cc3n2)cc1 [Compound 2-123, 7-(8-chloro-2,3-dihydro-1H-pyrido[2,3-b][1,4]oxazin-7-yl)-6-fluoro-N2-(4-((methylsulfonyl)methyl)phenyl)quinazoline-2,5-diamine] | 10.43
COc1cc(C2CC2)ccc1Nc1ncc2c(N)c(F)c(-c3cnc4c(c3C)NCCO4)cc2n1 [Compound 2-176, N~2~-(4-cyclopropyl-2-methoxyphenyl)-6-fluoro-7-(8-methyl-2,3-dihydro-1H-pyrido[2,3-b][1,4]oxazin-7-yl)quinazoline-2,5-diamine] | 7.76
CNC(=O)c1ccc(Nc2ncc3c(N)c(F)c(-c4cnc5c(c4C)NCCO5)cc3n2)cc1 [Compound 2-23, 4-{[5-amino-6-fluoro-7-(8-methyl-2,3-dihydro-1H-pyrido[2,3-b][1,4]oxazin-7-yl)quinazolin-2-yl]amino}-N-methylbenzamide] | 10.29
COc1ncccc1Nc1ncc2c(N)c(F)c(-c3cnc4c(c3C)NCCO4)cc2n1 [Compound 2-27, 6-fluoro-N~2~-(2-methoxypyridin-3-yl)-7-(8-methyl-2,3-dihydro-1H-pyrido[2,3-b][1,4]oxazin-7-yl)quinazoline-2,5-diamine] | 9.93
COc1cc2c(cc1Nc1ncc3c(N)cc(-c4cnccc4C)cc3n1)CNCC2 [Compound 2-37, N^2-(6-methoxy-1,2,3,4-tetrahydroisoquinolin-7-yl)-7-(4-methylpyridin-3-yl)quinazoline-2,5-diamine] | 9.43
COc1cc2c(cc1Nc1ncc3c(N)cc(-c4c(C)cccc4F)cc3n1)CN(C)CC2 [Compound 2-38, 7-(2-fluoro-6-methylphenyl)-N^2-(6-methoxy-2-methyl-1,2,3,4-tetrahydroisoquinolin-7-yl)quinazoline-2,5-diamine] | 7.45
COc1cc2c(cc1Nc1ncc3ccc(-c4ccc5c(c4)CCO5)cc3n1)CNCC2 [Compound 1-72, 7-(2,3-dihydro-1-benzofuran-5-yl)-N-(6-methoxy-1,2,3,4-tetrahydroisoquinolin-7-yl)quinazolin-2-amine] | 7.27
COc1cc2c(cc1Nc1ncc3ccc(Oc4ccc([C@H](C)N)cc4)cc3n1)CN(C)CC2 [Compound 4-8, 7-{4-[(1S)-1-aminoethyl]-phenoxy}-N-(6-methoxy-2-methyl-1,2,3,4-tetrahydro-isoquinolin-7-yl)quinazolin-2-amine] | 8.63
COc1cc2c(cc1Nc1ncc3c(N)c(F)c(-c4cnc5c(c4C)NCCO5)c(Cl)c3n1)CN(C)CC2 [Compound 2-90, (+ and −)-8-chloro-6-fluoro-N~2~-(6-methoxy-2-methyl-1,2,3,4-tetrahydroisoquinolin-7-yl)-7-(8-methyl-2,3-dihydro-1H-pyrido[2,3-b][1,4]oxazin-7-yl)quinazoline-2,5-diamine] | 10.45
COc1cc2c(cc1Nc1ncc3ccc(NC[C@@H]4CCC(=O)N4)cc3n1)CN(C)CC2 [Compound 3-45, (5S)-5-[({2-[(6-methoxy-2-meth-yl-1,2,3,4-tetrahydroisoquinolin-7-yl)amino]quinazolin-7-yl}-amino)methyl]pyrrolidin-2-one] | 6.54
COc1cc2c(cc1Nc1ncc3ccc(N4C(=O)OCC4(C)C)cc3n1)CN(C)CC2 [Compound 3-6, 3-{2-[(6-methoxy-2-methyl-1,2,3,4-tetrahydroisoquinolin-7-yl)amino]quinazolin-7-yl}-4,4-dimethyl-1,3-oxazolidin-2-one] | 7.34
COc1cc2c(cc1Nc1ncc3ccc(-c4cccc(S(=O)(=O)N5CCCCC5)c4)cc3n1)CNCC2 [Compound 1-82, N-(6-methoxy-1,2,3,4-tetrahydroisoquinolin-7-yl)-7-{3-[(piperidin-1-yl)sulfonyl]phenyl}quinazo-line-2-amine] | 7.82
COc1cc2c(cc1Nc1ncc3ccc(-c4cccnc4)cc3n1)CNCC2 [Compound 1-40, N-(6-methoxy-1,2,3,4-tetrahydroisoquinolin-7-yl)-7-(pyridin-3-yl)quinazolin-2-amine] | 8.05
COc1cc2c(cc1Nc1ncc3ccc(-c4ccccc4-c4ccnn4C)cc3n1)CN(C)CC2 [Compound 1-109, N-(6-methoxy-2-methyl-1,2,3,4-tetrahydroisoquinolin-7-yl)-7-[2-(1-methyl-1H-pyrazol-5-yl)phenyl]quinazolin-2-amine] | 9.09
Cc1c(-c2c(F)c(N)c3cnc(Nc4ccc(CS(=O)(=O)C(C)C)cc4)nc3c2Cl)cnc2c1NCCO2 [Compound 2-133, (+ and −)-8-chloro-6-fluoro-7-(8-methyl-2,3-dihydro-1H-pyrido[2,3-b][1,4]oxazin-7-yl)-N~2~- (4-{[(propan-2-yl)sulfonyl]methyl}phenyl) quinazoline-2,5-diamine] | 9.39
COC(=O)Cc1ccc(OC)c(Nc2ncc3c(N)c(F)c(-c4cnc5c(c4C)NCCO5)cc3n2)c1 [Compound 2-3, methyl (3-{[5-amino-6-fluoro-7-(8-methyl-2,3-dihydro-1H-pyrido[2,3-b][1,4]oxazin-7-yl)quinazolin-2-yl]amino}-4-methoxyphenyl)acetate] | 6.49
COc1cc2c(cc1Nc1ncc3ccc(NCC(=O)N4CCOCC4)cc3n1)CN(C)CC2 [Compound 3-64, 2-({2-[(6-methoxy-2-methyl-1,2,3,4-tetrahydroisoquinolin-7-yl)amino]quinazolin-7-yl}-amino)-1-(morpholin-4-yl)ethan-1-one] | 6.94
COc1cc2c(cc1Nc1ncc3ccc(-c4cccc(CO)c4)cc3n1)CNCC2 [Compound 1-60, (3-{2-[(6-methoxy-1,2,3,4-tetrahydroisoquinolin-7-yl)amino]quinazolin-7-yl}phenyl)methanol] | 7.69
COc1cc2c(cc1Nc1ncc3ccc(NCC4CC(=O)N(C)C4)cc3n1)CN(C)CC2 (stereo in doubt) [Compound 3-48, (4S)-4-[({2-[(6-methoxy-2-meth-yl-1,2,3,4-tetrahydroisoquinolin-7-yl)amino]quinazolin-7-yl}-amino)methyl]-1-methylpyrrol-idin-2-one] | 6.28
COc1cc(C(C)S(C)(=O)=O)ccc1Nc1ncc2c(N)c(F)c(-c3cnc4c(c3C)NCCO4)cc2n1 (single isomer, unassigned) [Compound 2-55, (R or S)-6-fluoro-N˜2˜-{2-methoxy-4-[1-(methylsulfonyl)ethyl]phenyl}-7-(8-methyl-2,3-dihydro-1H-pyrido[2,3-b][1,4]oxazin-7-yl)quinazoline-2,5-diamine] | 8.79
